Measurements from ChEMBL document CHEMBL5653615 (J Biol Chem, 2013).

Experiments:
[1] = molecular target: Phosphorylase b kinase gamma catalytic chain, skeletal muscle/heart isoform (Homo sapiens) (UniProt Q16816); assay: Inhibition of human PHKg1 at 18.6 nM by HotSpot assay relative to control
[2] = molecular target: G protein-coupled receptor kinase 4 (Homo sapiens) (UniProt P32298); assay: Inhibition of human GRK4 at 18.6 nM by HotSpot assay relative to control
[3] = molecular target: T1, Serine/threonine-protein kinase 4 (Homo sapiens) (UniProt Q13043); assay: Inhibition of human STK4 at 18.6 nM by HotSpot assay relative to control
T1 sequence (whole entry): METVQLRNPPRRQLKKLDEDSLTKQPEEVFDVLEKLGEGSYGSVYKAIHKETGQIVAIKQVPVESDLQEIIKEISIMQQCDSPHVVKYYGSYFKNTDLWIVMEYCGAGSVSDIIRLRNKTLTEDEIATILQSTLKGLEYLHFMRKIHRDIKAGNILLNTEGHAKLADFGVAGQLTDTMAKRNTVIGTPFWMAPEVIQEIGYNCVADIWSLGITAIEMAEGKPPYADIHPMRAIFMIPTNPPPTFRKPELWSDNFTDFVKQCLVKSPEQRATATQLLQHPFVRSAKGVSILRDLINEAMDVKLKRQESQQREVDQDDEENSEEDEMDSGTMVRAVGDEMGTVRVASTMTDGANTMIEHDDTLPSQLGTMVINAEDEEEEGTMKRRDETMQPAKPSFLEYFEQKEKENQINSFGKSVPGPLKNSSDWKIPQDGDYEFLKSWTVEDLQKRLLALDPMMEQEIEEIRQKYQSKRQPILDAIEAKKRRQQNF

[4] = molecular target: T2, Tyrosine-protein kinase JAK3 (Homo sapiens) (UniProt P52333); assay: Inhibition of human JAK3 at 1.82 nM by HotSpot assay relative to control
T2 sequence (whole entry): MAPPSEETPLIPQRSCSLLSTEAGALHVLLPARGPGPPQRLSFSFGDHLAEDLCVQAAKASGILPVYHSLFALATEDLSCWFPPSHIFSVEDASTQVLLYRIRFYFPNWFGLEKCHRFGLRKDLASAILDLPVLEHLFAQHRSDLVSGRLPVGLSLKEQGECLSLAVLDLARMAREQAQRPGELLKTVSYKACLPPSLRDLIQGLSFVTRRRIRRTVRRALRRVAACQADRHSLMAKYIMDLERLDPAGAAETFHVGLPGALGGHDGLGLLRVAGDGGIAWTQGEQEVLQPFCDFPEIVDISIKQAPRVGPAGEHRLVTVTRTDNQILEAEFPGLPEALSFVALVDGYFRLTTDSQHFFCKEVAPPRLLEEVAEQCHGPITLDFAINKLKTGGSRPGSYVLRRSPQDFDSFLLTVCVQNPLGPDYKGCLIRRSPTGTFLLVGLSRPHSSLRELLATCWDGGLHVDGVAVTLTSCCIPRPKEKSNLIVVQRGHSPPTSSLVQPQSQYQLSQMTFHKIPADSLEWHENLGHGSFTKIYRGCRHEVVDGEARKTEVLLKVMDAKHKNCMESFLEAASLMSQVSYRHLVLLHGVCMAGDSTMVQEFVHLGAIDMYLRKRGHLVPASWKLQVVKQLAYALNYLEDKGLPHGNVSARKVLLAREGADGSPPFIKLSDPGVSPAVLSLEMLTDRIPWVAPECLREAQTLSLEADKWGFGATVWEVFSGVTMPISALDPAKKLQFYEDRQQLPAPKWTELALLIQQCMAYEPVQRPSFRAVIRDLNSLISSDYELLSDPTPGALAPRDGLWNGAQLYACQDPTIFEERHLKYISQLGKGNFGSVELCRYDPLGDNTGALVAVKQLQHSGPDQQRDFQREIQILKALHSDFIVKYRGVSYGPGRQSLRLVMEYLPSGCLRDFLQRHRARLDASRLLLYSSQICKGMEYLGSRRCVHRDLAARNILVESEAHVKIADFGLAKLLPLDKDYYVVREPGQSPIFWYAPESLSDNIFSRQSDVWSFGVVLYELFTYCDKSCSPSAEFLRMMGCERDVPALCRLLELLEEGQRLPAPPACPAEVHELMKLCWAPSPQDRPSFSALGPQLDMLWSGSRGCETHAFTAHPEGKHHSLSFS

[5] = molecular target: T3, Aurora kinase A (Homo sapiens) (UniProt O14965); assay: Inhibition of human Aurora A at 1.82 nM by HotSpot assay relative to control
T3 sequence (whole entry): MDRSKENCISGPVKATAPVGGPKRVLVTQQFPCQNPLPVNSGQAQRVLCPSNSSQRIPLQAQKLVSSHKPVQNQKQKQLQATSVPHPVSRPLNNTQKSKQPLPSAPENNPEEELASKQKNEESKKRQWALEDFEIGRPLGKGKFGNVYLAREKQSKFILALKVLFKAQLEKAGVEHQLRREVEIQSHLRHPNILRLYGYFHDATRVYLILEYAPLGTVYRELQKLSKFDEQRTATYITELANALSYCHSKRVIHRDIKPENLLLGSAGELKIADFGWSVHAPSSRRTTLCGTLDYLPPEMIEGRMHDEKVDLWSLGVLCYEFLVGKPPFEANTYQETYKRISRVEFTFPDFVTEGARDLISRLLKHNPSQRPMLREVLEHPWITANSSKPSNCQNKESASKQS

Sequence of Phosphorylase b kinase gamma catalytic chain, skeletal muscle/heart isoform (Homo sapiens) (Q16816 whole entry, looked up, canonical isoform): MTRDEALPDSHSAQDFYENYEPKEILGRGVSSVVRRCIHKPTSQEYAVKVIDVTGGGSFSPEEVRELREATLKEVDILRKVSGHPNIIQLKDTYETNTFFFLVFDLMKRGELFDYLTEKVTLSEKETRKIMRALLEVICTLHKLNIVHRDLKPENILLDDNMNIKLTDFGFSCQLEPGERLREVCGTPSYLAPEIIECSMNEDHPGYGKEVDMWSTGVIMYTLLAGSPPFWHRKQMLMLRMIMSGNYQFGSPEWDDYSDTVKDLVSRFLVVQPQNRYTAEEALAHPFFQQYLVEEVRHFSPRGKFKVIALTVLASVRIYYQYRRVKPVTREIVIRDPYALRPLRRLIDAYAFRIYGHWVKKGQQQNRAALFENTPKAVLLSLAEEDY
Sequence of G protein-coupled receptor kinase 4 (Homo sapiens) (P32298 whole entry, looked up): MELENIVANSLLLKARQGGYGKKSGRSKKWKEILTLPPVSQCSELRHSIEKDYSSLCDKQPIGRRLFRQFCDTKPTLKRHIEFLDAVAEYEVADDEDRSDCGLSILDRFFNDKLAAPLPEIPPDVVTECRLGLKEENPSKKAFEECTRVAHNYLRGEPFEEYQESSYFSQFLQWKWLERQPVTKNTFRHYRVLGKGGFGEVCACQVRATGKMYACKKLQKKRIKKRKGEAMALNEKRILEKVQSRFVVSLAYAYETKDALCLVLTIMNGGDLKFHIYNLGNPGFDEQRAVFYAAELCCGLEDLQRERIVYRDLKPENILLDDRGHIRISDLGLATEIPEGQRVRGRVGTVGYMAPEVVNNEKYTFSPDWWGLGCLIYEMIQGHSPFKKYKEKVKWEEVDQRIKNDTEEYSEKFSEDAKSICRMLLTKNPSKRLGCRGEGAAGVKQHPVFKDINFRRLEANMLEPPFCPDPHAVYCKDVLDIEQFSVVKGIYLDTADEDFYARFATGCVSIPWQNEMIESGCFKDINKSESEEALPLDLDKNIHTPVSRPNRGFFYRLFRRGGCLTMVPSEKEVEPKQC

Row | SMILES | inhibition [1] | inhibition [2] | inhibition [3] | inhibition [4] | inhibition [5]
1 | C[C@]1(O)C[C@@H](c2nc(-c3ccc4ccc(-c5ccccc5)nc4c3)c3c(N)nccn32)C1 | 6.05% | 5.49% | 6.04% |  | 
2 | C[C@@]1(C(=O)Nc2ccc(F)nc2)CCCN1c1nc(Nc2cc(C3CC3)n[nH]2)c2cccn2n1 |  |  |  | -1.99% | 30%
